Measured values reported in patent US6979740B2, “Process for preparation of ring-substituted 8-aminoquinoline analogs as antimalarial agents” (National Institute of Pharmaceutical Education and Research, priority 2003, dated 2005).
In brackets after ≈: the same amount, converted by molar mass. Entries after “also recorded” stand apart in the source; their conditions may differ.

Tests used:
[1] = system: Plasmodium berghei (sensitive strain); assay: Blood schizontocidal activity against Plasmodium berghei infection in mice; type: in vivo; conditions: P. berghei infected mice, oral, 4 doses D0 to D+3, suppressive = parasitaemia suppressed on D+4 and D+7, curative = cleared up to 28 days
Protocol: (§1) Blood schizontocidal activity evaluation of potential antimalarial compounds against Plasmodium berghei (sensitive strain) and P. yoelii nigeriensis (resistant strain) infection in mice.
(§2) Test Procedure: On day ‘0’, groups of 6 mice each were inoculated, intraperitoneally, with 1×10^7 infected-erythrocytes, from a donor mouse. Four hours later, mice were administered test compounds/chloroquine primaquine/vehicle, orally. A total of 4 doses were given on days D‘0’, D+1, D+2, and D+3. The tail blood smears were made on day D+4 and D+7, stained with Geimsa, and examined microscopically. […] The results of blood-schizontocidal activities for the synthesized compounds are given below in Table 1.

[2] = system: Mastomys coucha; assay: In vivo methemoglobin (MetHb) toxicity in Mastomys coucha; conditions: for (%) Methemoglobin (MetHb) Increase: Mastomys coucha, blood 4 h after administration
Protocol: The protocol used is as follows: In vivo MetHb-inducing properties estimation was carried out in Mastomys coucha, a rapid rodent animal model using protocols reported earlier (Srivastava, P., Singh, S., Jain, G. K., Puri, S. K., Pandey, V. C. Ecotox. Environ. Safety. 2000, 45, 236-239). Briefly; six animals per group of both sexes, 2-3 months old and body weight between 40-50 g were used for the present investigation. Drug was administered intraperitoneally (ip) or orally at various dosage for single day/three consecutive days. Primaquine is used as the standard drug for the test. It is known that primaquine is readily absorbed from the gastro-intestinal tract and peak plasma concentration reaches within 3 h and falls within an apparent elimination half time of 6 h. Keeping the above pharmacokinetic profile in mind, the blood samples were collected after 4 h of drug administration and % increase in MetHb was calculated.

[3] = system: P. falciparum; assay: In vitro antimalarial activity against P. falciparum; type: cell-based
Protocol: Protocol: Different drug dilutions [test compounds and chloroquine (positive control)] were prepared in complete RPMI (medium RPMI 1640+10% AB^+ human serum; CRPMI). Fifty μL of each dilution was transferred to the respective well of a microtiter plate in triplicates. Parasitized erythrocytes (PE; mainly rings; 4% parasitaemia; 5% hematokrit) were added to each well. Volume in each well was made up to 200 μL with CRPMI. The plates were incubated at 37° C. in a candle jar. After 24-48 h of incubation, thin smears from each well were made and stained with Giemsa. The number of PE/10,000 cells was counted. […] Using non-linear regression analysis, the IC50 of the test compounds was then calculated.

[4] = cited from earlier work
[5] = system: P. yoelii nigeriensis (multidrug resistant strain); assay: Blood schizontocidal activity against chloroquine and mefloquine drug-resistant P. yoelii nigeriensis in mice; type: in vivo; conditions: oral, 4 doses, listed as R=H, R1=H, R2=C(CH3)3, R3=H
Protocol: as §1, §2

[6] = system: Swiss mice; assay: Acute toxicity studies in Swiss mice; type: in vivo
Protocol: A group of ten mice with equal ratio of male and female were subjected to a single dose of 5, 50, 150 and 450 mg/kg.

**Q.** With `COc1cc(NCCC(C)CN)c2nc(C(C)(C)C)cc(C)c2c1OC` (stereo not shown) [Example 56, N^8-(4-Amino-3-methylbutyl)-2-tert-butyl-5,6-methoxy-4-methyl-8-quinolinamine] as the compound, how does the “Biological activity at (mg/kg/days × 4)” value [1] read?
**A.** Curative at 100 mg/kg

**Q.** Which “Biological activity at (mg/kg/days × 4)” value ([1]; listed as 17) does the source give for `COc1cc(NC(C)CCCNC(=O)[C@@H](N)CCCCN)c2nc(C(C)(C)C)ccc2c1` (stereo partly drawn) [Example 63, N^1-[4-(2-tert-Butyl-6-methoxy-8-quinolylamino)pentyl]-(2S)-2-6-diaminohexanamide] here?
**A.** suppressive activity at 10 mg/kg

**Q.** What about the “Biological activity at (mg/kg/days × 4)” value ([1]; listed as R=H, R1=H, R2=C(CH3)3, R3=S-(Lys)) of the same compound?
**A.** Suppressive at 10 mg/kg

**Q.** Which “Biological activity at (mg/kg/days × 4)” value [1] does the source give for `COc1cc(NC(C)CCCN)c2ncccc2c1C1CCCCC1` (stereo not shown) [Example 47, N^8-(4-Amino-1-methylbutyl)-5-cyclohexyl-6-methoxy-8-quinolinamine] here?
**A.** Inactive at 100 mg/kg

**Q.** With `COc1cc(NC(C)CCCN)c2nc(C(C)(C)C)ccc2c1OC` (stereo not shown) [Example 51, N^8-(4-Amino-1-methylbutyl)-2-tert-butyl-5,6-dimethoxy-8-quinolinamine] as the compound, how does the “Biological activity at (mg/kg/days × 4)” value [1] read?
**A.** Inactive at 100 mg/kg

**Q.** Which “Biological activity at (mg/kg/days × 4)” value [1] does the source give for `COc1cc(NC(C)CCCN)c2nc(C(C)C)ccc2c1C(C)C` (stereo not shown) [Example 49, N^8-(4-Amino-1-methylbutyl)-2,5-diisopropyl-6-methoxy-8-quinolinamine] here?
**A.** Inactive at 100 mg/kg

**Q.** With `COc1cc(NC(C)CCCNC(=O)[C@@H](N)CCCN)c2nc(C(C)(C)C)ccc2c1` (stereo partly drawn) [Example 61, N^1-[4-(2-tert-Butyl-6-methoxy-8-quinolylamino)pentyl]-(2S)-2,5-diaminopentamide] as the compound, how does the “Biological activity at (mg/kg/days × 4)” value [1] read?
**A.** Curative at 100 mg/kg

**Q.** For `COc1cc(NC(C)CCCN)c2ncccc2c1C(C)C` (stereo not shown) [Example 46, N^8-(4-Amino-1-methylbutyl)-5-isopropyl-6-methoxy-8-quinolinamine], which “Biological activity at (mg/kg/days × 4)” value [1] is on record?
**A.** Inactive at 100 mg/kg

**Q.** With `CCCCCOc1c(OC)cc(NC(C)CCCN)c2nc(C(C)(C)C)cc(CC)c12` (stereo not shown) [Example 54, N^8-(4-Amino-1-methylbutyl)-2-tert-butyl-4-ethyl-6-methoxy-5-pentoxy-8-quinolin-amine] as the compound, how does the “Biological activity at (mg/kg/days × 4)” value [1] read?
**A.** Curative at 100 mg/kg

**Q.** What does the source list for `COc1cc(NC(C)CCCNC(=O)[C@H](C)N)c2nc(C(C)(C)C)ccc2c1` (stereo partly drawn) [Example 64, N^1-[4-(2-tert-Butyl-6-methoxy-8-quinolylamino)pentyl]-(2S)-2-aminopropanamide]?
**A.** Biological activity at (mg/kg/days × 4) ([1]; listed as 18): suppressive activity at 10 mg/kg; Biological activity at (mg/kg/days × 4) ([1]; listed as R=H, R1=H, R2=C(CH3)3, R3=S-(Ala)): Suppressive at 10 mg/kg

**Q.** Which “Biological activity at (mg/kg/days × 4)” value [1] does the source give for `COc1cc(NC(C)CCCN)c2nc(C3CCCC3)ccc2c1C1CCCC1` (stereo not shown) [Example 48, N^8-(4-Amino-1-methylbutyl)-2,5-dicyclopentyl-6-methoxy-8-quinolinamine] here?
**A.** Inactive at 100 mg/kg

**Q.** Which “Biological activity at (mg/kg/days × 4)” value [1] does the source give for `CCCCCCCCOc1c(OC)cc(NC(C)CCCN)c2nc(C(C)(C)C)cc(CC)c12` (stereo not shown) [Example 55, N^8-(4-Amino-1-methylbutyl)-2-tert-butyl-4-ethyl-6-methoxy-5-octoxy-8-quinolin-amine] here?
**A.** Curative at 100 mg/kg

**Q.** Which “Biological activity at (mg/kg/days × 4)” value [1] does the source give for `COc1cc(NC(C)CCCN)c2nc(C34CC5CC(CC(C5)C3)C4)ccc2c1` (stereo not shown) [Example 45, N^8-[4-Amino-1-methylbutyl)-2-adamantyl-6-methoxy-8-quinolinamine] here?
**A.** Inactive at 100 mg/kg

**Q.** What does the source list for `COc1cc(NC(C)CCCN)c2ncccc2c1` (stereo not shown) [Primaquine, N^8-(4-amino-1-methylbutyl)-6-methoxy-8-quinolinamine, reference compound]?
**A.** (%) Methemoglobin (MetHb) Increase ([2]; 15 mg/kg/day x 4 days (ip)): 3.38%; (%) Methemoglobin (MetHb) Increase ([2]; 15 mg/kg/day x 4 days (oral)): 3.57%; (%) Methemoglobin (MetHb) Increase ([2]; 50 mg/kg (single dose) (ip)): 3.38%; (%) Methemoglobin (MetHb) Increase ([2]; 50 mg/kg (single dose) (oral)): 2.58%; P. falciparum (IC50) ([3]; parasitized erythrocytes, 24-48 h incubation): Not active; time to peak plasma concentration ([4]; absorbed from the gastro-intestinal tract, known property): ≤ 3 h; half-life ([4]; known property of the drug): 4 to 6 h; apparent elimination half time ([4]; known property): 6 h

**Q.** Which “Biological activity at (mg/kg/days × 4)” value [1] does the source give for `COc1cc(NC(C)CCCN)c2nc(C3CCCCC3)ccc2c1C1CCCCC1` (stereo not shown) [Example 50, N^8-(4-Amino-1-methylbutyl)-2,5-dicyclohexyl-6-methoxy-8-quinolinamine] here?
**A.** Inactive at 100 mg/kg

**Q.** Which “Biological activity at (mg/kg/days × 4)” value [1] does the source give for `COc1cc(NC(C)CCCN)c2ncccc2c1C1CCCC1` (stereo not shown) [Example 44, N^8-(4-Amino-1-methylbutyl)-5-cyclopentyl-6-methoxy-8-quinolinamine] here?
**A.** Inactive at 100 mg/kg

**Q.** For `COc1cc(NC(C)CCCN)c2nc(C(C)(C)C)ccc2c1` (stereo not shown) [Example 43, N^8-(4-Amino-1-methylbutyl)-2-tert-butyl-6-methoxy-8-quinolinamine], which “Biological activity at (mg/kg/days × 4)” value ([1]; listed as 1) is on record?
**A.** curative at a dose of 10 mg/kg

**Q.** What about the “Biological activity at (mg/kg/days × 4)” value ([1]; listed as R=H, R1=H, R2=C(CH3)3, R3=H) of the same compound?
**A.** Curative at 10 mg/kg

**Q.** And the “Biological activity at (mg/kg/days × 4)” value [5]?
**A.** Curative at 100 mg/kg; also recorded: Curative at 50 mg/kg; also recorded: Curative at 25 mg/kg; also recorded: Suppressive at 10 mg/kg

**Q.** What about the “acute toxicity (result in words)” value ([6]; single dose) of the same compound?
**A.** completely safe at 50 mg/kg

**Q.** And the “% Mortality Female” value ([6]; single dose 5 mg/kg)?
**A.** 0%

**Q.** What about the “% Mortality Male” value ([6]; single dose 5 mg/kg) of the same compound?
**A.** 0%

**Q.** And the “% Mortality Total” value ([6]; single dose 5 mg/kg)?
**A.** 0%

**Q.** What about the “% Mortality Female” value ([6]; single dose 50 mg/kg) of the same compound?
**A.** 0%

**Q.** What about the “% Mortality Male” value ([6]; single dose 50 mg/kg) of the same compound?
**A.** 0%

**Q.** What about the “% Mortality Total” value ([6]; single dose 50 mg/kg) of the same compound?
**A.** 0%

**Q.** What about the “% Mortality Female” value ([6]; single dose 150 mg/kg) of the same compound?
**A.** 0%

**Q.** What about the “% Mortality Male” value ([6]; single dose 150 mg/kg) of the same compound?
**A.** 0%

**Q.** And the “% Mortality Total” value ([6]; single dose 150 mg/kg)?
**A.** 0%

**Q.** And the “% Mortality Female” value ([6]; single dose 450 mg/kg)?
**A.** 0%

**Q.** And the “% Mortality Male” value ([6]; single dose 450 mg/kg)?
**A.** 0%

**Q.** What about the “% Mortality Total” value ([6]; single dose 450 mg/kg) of the same compound?
**A.** 0%

**Q.** And the “(%) Methemoglobin (MetHb) Increase” value ([2]; 15 mg/kg/day x 4 days (ip))?
**A.** 0%

**Q.** What about the “(%) Methemoglobin (MetHb) Increase” value ([2]; 15 mg/kg/day x 4 days (oral)) of the same compound?
**A.** 0%

**Q.** And the “(%) Methemoglobin (MetHb) Increase” value ([2]; 50 mg/kg (single dose) (ip))?
**A.** 0%

**Q.** And the “(%) Methemoglobin (MetHb) Increase” value ([2]; 50 mg/kg (single dose) (oral))?
**A.** 0%

**Q.** And the “methemoglobin (MetHb) toxicity (result in words)” value ([2]; in vivo)?
**A.** completely devoid of this toxic manifestation in vivo

**Q.** And the IC50 ([3]; Plasmodium falciparum, Erythrocyte, read-out: P. falciparum (IC50))?
**A.** 0.0391 mg/L (≈ 0.124 µM)
